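Cells were grown in 96-well plates and exposed to each compound for 48 hours at five concentrations; endpoints were interpolated linearly between bracketing concentrations, or set to the highest concentration if not reached. GI50 is the concentration that inhibits growth by half. TGI: concentration producing complete growth inhibition.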
Key:
Assay in all cases: growth of human tumour cells (NCI), 48 h
786-0 renal = system: 786-0 renal
A498 renal = system: A498 renal
A549 NSCLC = system: A549 NSCLC
ACHN renal = system: ACHN renal
BT-549 breast = system: BT-549 breast
CAKI-1 renal = system: CAKI-1 renal
CCRF-CEM leukemia = system: CCRF-CEM leukemia
COLO 205 colon = system: COLO 205 colon
DU-145 prostate = system: DU-145 prostate
EKVX NSCLC = system: EKVX NSCLC
HCC-2998 colon = system: HCC-2998 colon
HCT-116 colon = system: HCT-116 colon
HCT-15 colon = system: HCT-15 colon
HL-60(TB) leukemia = system: HL-60(TB) leukemia
HOP-62 NSCLC = system: HOP-62 NSCLC
HOP-92 NSCLC = system: HOP-92 NSCLC
HS 578T breast = system: HS 578T breast
HT29 colon = system: HT29 colon
IGROV1 ovarian = system: IGROV1 ovarian
K-562 leukemia = system: K-562 leukemia
KM12 colon = system: KM12 colon
M14 melanoma = system: M14 melanoma
MALME-3M melanoma = system: MALME-3M melanoma
MCF7 breast = system: MCF7 breast
MDA-MB-231 breast = system: MDA-MB-231 breast
MDA-MB-435 = system: MDA-MB-435
MOLT-4 leukemia = system: MOLT-4 leukemia
NCI-H226 lung = system: NCI-H226 lung
NCI-H23 lung = system: NCI-H23 lung
NCI-H460 lung = system: NCI-H460 lung
NCI-H522 lung = system: NCI-H522 lung
NCI/ADR-RES ovarian = system: NCI/ADR-RES ovarian
OVCAR-4 ovarian = system: OVCAR-4 ovarian
OVCAR-5 ovarian = system: OVCAR-5 ovarian
OVCAR-8 ovarian = system: OVCAR-8 ovarian
PC-3 prostate = system: PC-3 prostate
RPMI-8226 leukemia = system: RPMI-8226 leukemia
RXF 393 renal = system: RXF 393 renal
SF-268 CNS = system: SF-268 CNS
SF-295 CNS = system: SF-295 CNS
SF-539 CNS = system: SF-539 CNS
SK-MEL-2 melanoma = system: SK-MEL-2 melanoma
SK-MEL-28 melanoma = system: SK-MEL-28 melanoma
SK-MEL-5 melanoma = system: SK-MEL-5 melanoma
SK-OV-3 ovarian = system: SK-OV-3 ovarian
SN12C renal = system: SN12C renal
SNB-19 CNS = system: SNB-19 CNS
SR leukemia = system: SR leukemia
SW-620 colon = system: SW-620 colon
T-47D breast = system: T-47D breast
TK-10 renal = system: TK-10 renal
U251 CNS = system: U251 CNS
UACC-257 melanoma = system: UACC-257 melanoma
UACC-62 melanoma = system: UACC-62 melanoma
UO-31 renal = system: UO-31 renal

O=[N+]([O-])c1ccc(-c2nnc(SCc3ccc(O)c4ncccc34)n2-c2ccccc2)cc1
GI50 (786-0 renal): 1360 nM | TGI (786-0 renal): > 84200 nM | GI50 (A498 renal): 2300 nM | TGI (A498 renal): 17000 nM | GI50 (A549 NSCLC): 410 nM | TGI (A549 NSCLC): > 100000 nM | GI50 (ACHN renal): 2030 nM | TGI (ACHN renal): > 100000 nM | GI50 (BT-549 breast): 175 nM | TGI (BT-549 breast): > 100000 nM | GI50 (CAKI-1 renal): 2410 nM | TGI (CAKI-1 renal): > 100000 nM | GI50 (CCRF-CEM leukemia): 507 nM | TGI (CCRF-CEM leukemia): > 100000 nM | GI50 (COLO 205 colon): 2510 nM | TGI (COLO 205 colon): 7020 nM | GI50 (DU-145 prostate): 442 nM | TGI (DU-145 prostate): > 100000 nM | GI50 (EKVX NSCLC): 1430 nM | TGI (EKVX NSCLC): > 100000 nM | GI50 (HCC-2998 colon): 1400 nM | TGI (HCC-2998 colon): > 100000 nM | GI50 (HCT-116 colon): 127 nM | TGI (HCT-116 colon): > 100000 nM | GI50 (HCT-15 colon): 1050 nM | TGI (HCT-15 colon): > 100000 nM | GI50 (HL-60(TB) leukemia): 447 nM | TGI (HL-60(TB) leukemia): > 22900 nM | GI50 (HOP-62 NSCLC): 990 nM | TGI (HOP-62 NSCLC): > 100000 nM | GI50 (HOP-92 NSCLC): 69 nM | TGI (HOP-92 NSCLC): 598 nM | GI50 (HS 578T breast): 312 nM | TGI (HS 578T breast): > 100000 nM | GI50 (HT29 colon): 3190 nM | TGI (HT29 colon): > 100000 nM | GI50 (IGROV1 ovarian): 1560 nM | TGI (IGROV1 ovarian): > 100000 nM | GI50 (K-562 leukemia): 447 nM | TGI (K-562 leukemia): > 100000 nM | GI50 (KM12 colon): 585 nM | TGI (KM12 colon): > 100000 nM | GI50 (M14 melanoma): 493 nM | TGI (M14 melanoma): > 100000 nM | GI50 (MALME-3M melanoma): 1170 nM | TGI (MALME-3M melanoma): 8450 nM | GI50 (MCF7 breast): 325 nM | TGI (MCF7 breast): > 100000 nM | GI50 (MDA-MB-231 breast): 1050 nM | TGI (MDA-MB-231 breast): 4690 nM | GI50 (MDA-MB-435): 329 nM | TGI (MDA-MB-435): > 100000 nM | GI50 (MOLT-4 leukemia): 777 nM | TGI (MOLT-4 leukemia): > 100000 nM | GI50 (NCI-H226 lung): 4300 nM | TGI (NCI-H226 lung): > 100000 nM | GI50 (NCI-H23 lung): 433 nM | TGI (NCI-H23 lung): > 100000 nM | GI50 (NCI-H460 lung): 229 nM | TGI (NCI-H460 lung): > 100000 nM | GI50 (NCI-H522 lung): 253 nM | TGI (NCI-H522 lung): > 29600 nM | GI50 (NCI/ADR-RES ovarian): 7350 nM | TGI (NCI/ADR-RES ovarian): > 100000 nM | GI50 (OVCAR-4 ovarian): 2120 nM | TGI (OVCAR-4 ovarian): > 100000 nM | GI50 (OVCAR-5 ovarian): 3350 nM | TGI (OVCAR-5 ovarian): > 100000 nM | GI50 (OVCAR-8 ovarian): 240 nM | TGI (OVCAR-8 ovarian): > 100000 nM | GI50 (PC-3 prostate): 114 nM | TGI (PC-3 prostate): > 100000 nM | GI50 (RPMI-8226 leukemia): 695 nM | TGI (RPMI-8226 leukemia): > 100000 nM | GI50 (RXF 393 renal): 651 nM | TGI (RXF 393 renal): > 100000 nM | GI50 (SF-268 CNS): 360 nM | TGI (SF-268 CNS): > 100000 nM | GI50 (SF-295 CNS): 444 nM | TGI (SF-295 CNS): 5040 nM | GI50 (SF-539 CNS): 377 nM | TGI (SF-539 CNS): > 100000 nM | GI50 (SK-MEL-2 melanoma): 314 nM | TGI (SK-MEL-2 melanoma): 1820 nM | GI50 (SK-MEL-28 melanoma): 715 nM | TGI (SK-MEL-28 melanoma): > 100000 nM | GI50 (SK-MEL-5 melanoma): 363 nM | TGI (SK-MEL-5 melanoma): 1970 nM | GI50 (SK-OV-3 ovarian): 1760 nM | TGI (SK-OV-3 ovarian): 6350 nM | GI50 (SN12C renal): 293 nM | TGI (SN12C renal): > 100000 nM | GI50 (SNB-19 CNS): 254 nM | TGI (SNB-19 CNS): > 100000 nM | GI50 (SR leukemia): 420 nM | TGI (SR leukemia): > 100000 nM | GI50 (SW-620 colon): 479 nM | TGI (SW-620 colon): > 100000 nM | GI50 (T-47D breast): 834 nM | TGI (T-47D breast): > 100000 nM | GI50 (TK-10 renal): 2860 nM | TGI (TK-10 renal): > 100000 nM | GI50 (U251 CNS): 191 nM | TGI (U251 CNS): > 100000 nM | GI50 (UACC-257 melanoma): 1380 nM | TGI (UACC-257 melanoma): > 26100 nM | GI50 (UACC-62 melanoma): 2060 nM | TGI (UACC-62 melanoma): > 100000 nM | GI50 (UO-31 renal): 1950 nM | TGI (UO-31 renal): > 100000 nM
